Results: patent US5589568A (priority 1994, dated 1996)
Read-outs that look alike come from different tables or passages of the source. Where no end group is shown, it is not given here.

Tests used:
Gs = Gs (Homo sapiens, UniProt P63092); experiment: steady state GTPase activity of Gs; type: biochemical; details: read-out: Gs af. (apparent affinity, estimated by EC50 of GTPase activity)
Procedure: Methods for the assay of steady state GTP hydrolysis and GTPγS binding have been described previously by Higashijima, 1987, and Ferguson, 1986, and incorporated herein by reference. Unless noted otherwise, assays of steady state GTP hydrolysis and of the binding and dissociation of guanine nucleotides were carried out in the buffer described previously, but without detergent and with 1.1 mM MgSO4 and the nucleotide specified in the text. When necessary, the concentration of free Mg^2+ was adjusted using EDTA buffers as described previously by Higashijima, 1987, and incorporated herein by reference.
The data set forth in the following tables represent data generated by the inventors employing the steady state GTP hydrolysis, expressed as molar turnover numbers, are described herein under the "Assay" section of the Experimental Procedures in Example 1. The data has been classified according to the criteria outlined below and the effects of each peptide and modified variant on Go, Gi, and Gs have been tabulated. Table III below sets forth data generated for various mastoparan analogues designed by the inventors, in comparison with the various naturally-occurring mastoparans (e.g., MP, MP-A and MP-T). Table IV sets forth similar data generated for various receptor-based peptides designed by the inventors based on a consideration of various G-protein linked receptors.
Apparent affinity (af.) and apparent efficacy (ef.) were estimated by EC50 and maximum turnover number of GTPase activity.

Go = molecular target: T1, Go (Bos taurus, UniProt P08239); experiment: steady state GTPase activity of Go in phospholipid vesicles; type: biochemical, bovine
T1 construct: proteins were extracted from bovine cerebral cortical membranes; from tissue; host or cells: bovine brain (cerebral cortical membranes)
From the text: G proteins were reconstituted into phospholipid vesicles composed of dioleoyl-PC/bovine brain PS/1-palmitoyl,2-oleoyl-PE (3:4:3) as reported previously by Higashijima et al., 1988, incorporated herein by reference.

[1] = Table VI, receptor-based peptides

T1 sequence (P08239 2-354 limits assumed): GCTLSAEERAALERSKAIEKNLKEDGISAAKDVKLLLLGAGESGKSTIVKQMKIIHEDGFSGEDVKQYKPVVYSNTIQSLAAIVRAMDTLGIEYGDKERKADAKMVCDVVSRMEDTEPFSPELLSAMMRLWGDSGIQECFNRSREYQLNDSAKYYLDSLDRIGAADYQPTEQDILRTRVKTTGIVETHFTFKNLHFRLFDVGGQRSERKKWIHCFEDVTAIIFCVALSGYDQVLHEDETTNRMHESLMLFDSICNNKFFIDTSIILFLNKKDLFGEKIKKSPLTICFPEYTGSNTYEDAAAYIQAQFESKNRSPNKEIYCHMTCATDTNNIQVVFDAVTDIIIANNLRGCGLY
T1 sequence (P62871 2-340 partner limits assumed): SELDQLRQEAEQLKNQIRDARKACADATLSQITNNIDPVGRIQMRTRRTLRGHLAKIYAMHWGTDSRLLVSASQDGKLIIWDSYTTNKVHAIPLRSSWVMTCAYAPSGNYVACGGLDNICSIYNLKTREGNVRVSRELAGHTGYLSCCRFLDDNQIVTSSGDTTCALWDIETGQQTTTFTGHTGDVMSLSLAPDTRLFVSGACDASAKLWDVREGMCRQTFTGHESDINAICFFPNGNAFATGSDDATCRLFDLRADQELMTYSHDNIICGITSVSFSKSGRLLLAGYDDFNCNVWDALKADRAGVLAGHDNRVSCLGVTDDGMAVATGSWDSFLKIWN
T1 sequence (P63212 2-68 partner limits assumed): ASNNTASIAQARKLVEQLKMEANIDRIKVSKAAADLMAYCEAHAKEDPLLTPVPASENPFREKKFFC
Chain of Gs (P63092 whole entry): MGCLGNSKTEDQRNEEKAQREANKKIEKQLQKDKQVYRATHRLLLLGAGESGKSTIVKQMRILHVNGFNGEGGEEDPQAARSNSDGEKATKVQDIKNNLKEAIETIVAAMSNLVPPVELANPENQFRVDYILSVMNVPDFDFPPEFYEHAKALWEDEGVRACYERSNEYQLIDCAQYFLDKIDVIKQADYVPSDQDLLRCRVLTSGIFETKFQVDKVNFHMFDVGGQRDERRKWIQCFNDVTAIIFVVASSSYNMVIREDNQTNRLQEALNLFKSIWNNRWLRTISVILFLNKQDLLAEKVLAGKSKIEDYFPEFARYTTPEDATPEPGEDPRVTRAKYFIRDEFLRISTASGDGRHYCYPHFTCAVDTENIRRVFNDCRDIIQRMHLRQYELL

| Substance | EC50 (Gs; Table IV) | EC50 (Go) | EC50 (Gs; [1]) |
| --- | --- | --- | --- |
| INLKAIAAFAKKLL-NH2 [MP-T, reference compound] | 10 to 30 µM | 3 to 10 µM | – |
| INLKAKAALAKKLL-NH2 [Mas17] | 3 to 10 µM | 30 to 100 µM | – |
| INLKALAAAAKKLL-NH2 [MAS12] | 3 to 10 µM | 10 to 30 µM | – |
| INLKALAAKAKKLL-NH2 [MAS13] | 3 to 10 µM | 30 to 100 µM | – |
| INLKALAALAAALL-NH2 [ER5] | 3 to 10 µM | 3 to 10 µM | – |
| INLKALAALAAKLL-NH2 [Mas9] | 30 to 100 µM | 3 to 10 µM | – |
| INLKALAALAKALL-NH2 [ER1] | 3 to 10 µM | 3 to 10 µM | – |
| INLKALAALAKKLA-NH2 [MAS04] | 3 to 10 µM | 3 to 10 µM | – |
| INLKALAALAKNLL-NH2 [ER20] | 10 to 30 µM | 3 to 10 µM | – |
| INLKALAALAKRLL-NH2 [MAS08] | 3 to 10 µM | 3 to 10 µM | – |
| INLKALAALAQALL-NH2 [ER3] | 3 to 10 µM | 10 to 30 µM | – |
| INLKALAALARALL-NH2 [ER2] | 3 to 10 µM | < 3 µM | – |
| INLKALAALARKLL-NH2 [MAS10] | 3 to 10 µM | 3 to 10 µM | – |
| INLKALAALKKKLL-NH2 [MAS11] | 3 to 10 µM | 10 to 30 µM | – |
| INLKALAKLAKKLL-NH2 [MAS14] | 3 to 10 µM | 10 to 30 µM | – |
| INLKALKALAKALL-NH2 [ER10] | 3 to 10 µM | < 3 µM | – |
| INLKALKALAKKLL-NH2 [MAS15] | 3 to 10 µM | 10 to 30 µM | – |

| Substance | EC50 (Gs; Table IV) | EC50 (Go) | EC50 (Gs; [1]) |
| --- | --- | --- | --- |
| INLKKLAALAKKLL-NH2 [MAS18] | 3 to 10 µM | 10 to 30 µM | – |
| INLQALAALAKALL-NH2 [ER8] | 3 to 10 µM | 3 to 10 µM | – |
| INLQALAALAQALL-NH2 [ER9] | 10 to 30 µM | 30 to 100 µM | – |
| INLQALKALAKALL-NH2 [ER11] | 3 to 10 µM | 3 to 10 µM | – |
| INLRALAALAKALL-NH2 [ER6] | 3 to 10 µM | < 3 µM | – |
| INLRALAALAKKLL-NH2 [MAS20] | 3 to 10 µM | 3 to 10 µM | – |
| INLRALAALARALL-NH2 [ER7] | 3 to 10 µM | < 3 µM | – |
| INLRALAALRRRLL-NH2 [ER28] | 3 to 10 µM | < 3 µM | – |
| INLRALRALARALL-NH2 [ER24] | 3 to 10 µM | < 3 µM | – |
| INWRAWRAWARAWL-NH2 [ER27] | 3 to 10 µM | < 3 µM | – |
| INYKALAACAKKIL-NH2 [ER14] | 3 to 10 µM | 3 to 10 µM | – |
| INYKALAALAKALC-NH2 [ER17] | 10 to 30 µM | 3 to 10 µM | – |
| INYKALCALAKKIL-NH2 [ER15] | 10 to 30 µM | 30 to 100 µM | – |
| IQLKALAALAKALL-NH2 [ER12] | 3 to 10 µM | 3 to 10 µM | – |
| IVYREAKEQIRKIDRVL-NH2 [ER22] | – | 30 to 100 µM | 30 to 100 µM |
| IVYREAKEQIRKIL-NH2 [ER23] | – | 30 to 100 µM | 30 to 100 µM |
| REHKALKTLGIIC-NH2 [ER40] | – | > 100 µM | 30 to 100 µM |
